Results taken from ChEMBL document CHEMBL1921760, “Design, synthesis and biological evaluation of 6-pyridylmethylaminopurines as CDK inhibitors” (Bioorg Med Chem, 2011).
The source made the active and inactive calls. The calls are words filed in the database; no cut-off is given here.

Tests used:
[1] = biological target: Cyclin-dependent kinase 2/cyclin E1 (Homo sapiens, UniProt P24941); experiment: Inhibition of CDK2/cyclin E; assay type: protein-complex assay
[2] = biological target: Cyclin-dependent kinase 1/cyclin B1 (Homo sapiens, UniProt P06493); experiment: Inhibition of CDK1/cyclin B; assay type: protein-complex assay
Cyclin-dependent kinase 1/cyclin B1, sequence (P06493 whole entry): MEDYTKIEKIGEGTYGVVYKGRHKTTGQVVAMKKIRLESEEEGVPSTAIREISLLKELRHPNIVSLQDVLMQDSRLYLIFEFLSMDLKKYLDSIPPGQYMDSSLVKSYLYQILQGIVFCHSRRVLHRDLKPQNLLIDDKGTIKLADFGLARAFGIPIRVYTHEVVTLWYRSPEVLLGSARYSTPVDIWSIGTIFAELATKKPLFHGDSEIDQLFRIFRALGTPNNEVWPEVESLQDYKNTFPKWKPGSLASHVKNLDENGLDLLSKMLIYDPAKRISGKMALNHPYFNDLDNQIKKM
Cyclin-dependent kinase 1/cyclin B1, sequence (P14635 whole entry, further chain): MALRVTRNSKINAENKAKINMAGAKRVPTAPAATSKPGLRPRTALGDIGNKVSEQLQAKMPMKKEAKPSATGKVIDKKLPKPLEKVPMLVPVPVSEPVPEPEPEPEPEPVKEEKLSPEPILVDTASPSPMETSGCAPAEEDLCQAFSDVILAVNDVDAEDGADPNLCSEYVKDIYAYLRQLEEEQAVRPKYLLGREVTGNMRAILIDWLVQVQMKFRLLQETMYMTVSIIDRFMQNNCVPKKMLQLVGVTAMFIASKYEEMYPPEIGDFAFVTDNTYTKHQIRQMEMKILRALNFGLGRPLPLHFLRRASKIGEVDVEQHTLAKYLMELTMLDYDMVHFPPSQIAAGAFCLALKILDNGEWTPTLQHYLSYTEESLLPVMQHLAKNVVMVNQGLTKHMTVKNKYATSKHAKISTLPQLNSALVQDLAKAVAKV

[3] = biological target: Cyclin-dependent kinase 4/cyclin D1 (Homo sapiens, UniProt P11802); experiment: Inhibition of CDK4/cyclin D1; assay type: protein-complex assay
Cyclin-dependent kinase 4/cyclin D1, sequence (P11802 whole entry): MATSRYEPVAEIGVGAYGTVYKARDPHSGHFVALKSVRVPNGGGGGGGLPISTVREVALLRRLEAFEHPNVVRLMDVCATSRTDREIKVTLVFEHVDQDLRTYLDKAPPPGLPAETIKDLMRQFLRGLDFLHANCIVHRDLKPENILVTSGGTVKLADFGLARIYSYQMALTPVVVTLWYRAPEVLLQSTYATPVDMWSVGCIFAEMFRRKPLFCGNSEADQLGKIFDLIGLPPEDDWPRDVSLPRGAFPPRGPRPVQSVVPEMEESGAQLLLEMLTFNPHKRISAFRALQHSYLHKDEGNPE
Cyclin-dependent kinase 4/cyclin D1, sequence (P24385 whole entry, further chain): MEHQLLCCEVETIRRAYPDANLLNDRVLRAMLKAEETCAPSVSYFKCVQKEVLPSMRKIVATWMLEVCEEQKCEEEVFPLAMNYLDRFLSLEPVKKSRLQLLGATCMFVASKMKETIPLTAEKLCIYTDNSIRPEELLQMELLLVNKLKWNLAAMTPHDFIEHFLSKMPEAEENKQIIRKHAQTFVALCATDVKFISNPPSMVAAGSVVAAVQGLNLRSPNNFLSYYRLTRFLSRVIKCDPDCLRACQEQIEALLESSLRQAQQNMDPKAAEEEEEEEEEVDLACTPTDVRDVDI

[4] = biological target: Cyclin-dependent kinase 7/ cyclin H (Homo sapiens, UniProt P50613); experiment: Inhibition of CDK7/cyclin H; assay type: protein-complex assay
Cyclin-dependent kinase 7/ cyclin H, sequence (P51946 whole entry): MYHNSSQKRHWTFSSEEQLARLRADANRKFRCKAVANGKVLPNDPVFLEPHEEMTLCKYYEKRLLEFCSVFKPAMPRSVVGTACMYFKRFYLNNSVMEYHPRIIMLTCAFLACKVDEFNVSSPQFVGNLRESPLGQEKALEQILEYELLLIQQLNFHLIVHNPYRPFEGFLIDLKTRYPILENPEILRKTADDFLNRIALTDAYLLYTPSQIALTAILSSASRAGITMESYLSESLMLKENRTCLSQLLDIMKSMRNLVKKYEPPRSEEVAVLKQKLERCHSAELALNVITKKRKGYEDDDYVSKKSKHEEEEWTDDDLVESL
Cyclin-dependent kinase 7/ cyclin H, sequence (P50613 whole entry): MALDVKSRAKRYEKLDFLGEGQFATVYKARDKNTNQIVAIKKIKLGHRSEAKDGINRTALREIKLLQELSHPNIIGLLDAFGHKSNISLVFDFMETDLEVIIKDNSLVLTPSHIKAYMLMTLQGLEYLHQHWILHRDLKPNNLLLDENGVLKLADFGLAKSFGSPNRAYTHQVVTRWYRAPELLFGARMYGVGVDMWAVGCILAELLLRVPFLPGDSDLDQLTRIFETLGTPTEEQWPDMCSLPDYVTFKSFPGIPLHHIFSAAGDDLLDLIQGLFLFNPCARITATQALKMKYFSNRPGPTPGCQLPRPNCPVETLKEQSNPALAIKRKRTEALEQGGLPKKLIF

[5] = Inhibition of PKA
[6] = system: A2780; experiment: Growth inhibition of cisplatin-susceptible human A2780 cells after 96 hrs by sulforhodamine B assay; assay type: functional; settings: A2780, 96 h
[7] = system: A2780; experiment: Growth inhibition of cisplatin-resistant human A2780 cells after 96 hrs by sulforhodamine B assay; assay type: functional; settings: A2780, 96 h
[8] = system: CH1; experiment: Growth inhibition of doxorubicin-susceptible human CH1 cells after 96 hrs by sulforhodamine B assay; assay type: functional; settings: CH1, 96 h
[9] = system: CH1; experiment: Growth inhibition of doxorubicin-resistant human CH1 cells after 96 hrs by sulforhodamine B assay; assay type: functional; settings: CH1, 96 h
[10] = system: HCT-116; experiment: Growth inhibition of human HCT116 cells after 96 hrs by sulforhodamine B assay; assay type: functional; settings: HCT-116, 96 h
[11] = system: HT-29; experiment: Growth inhibition of human HT-29 cells after 96 hrs by sulforhodamine B assay; assay type: functional; settings: HT-29, 96 h
[12] = system: KM12; experiment: Growth inhibition of human KM12 cells after 96 hrs by sulforhodamine B assay; assay type: functional; settings: KM12, 96 h
[13] = Metabolic stability in mouse liver microsomes assessed as compound metabolized at 10 uM after 30 mins by LC-MS analysis; assay type: ADME, Microsome; settings: read-out: Activity
[14] = biological target: CDK9/cyclin T1 (Homo sapiens, UniProt P50750); experiment: Inhibition of CDK9/cyclin T1; assay type: protein-complex assay
CDK9/cyclin T1, sequence (O60563 whole entry): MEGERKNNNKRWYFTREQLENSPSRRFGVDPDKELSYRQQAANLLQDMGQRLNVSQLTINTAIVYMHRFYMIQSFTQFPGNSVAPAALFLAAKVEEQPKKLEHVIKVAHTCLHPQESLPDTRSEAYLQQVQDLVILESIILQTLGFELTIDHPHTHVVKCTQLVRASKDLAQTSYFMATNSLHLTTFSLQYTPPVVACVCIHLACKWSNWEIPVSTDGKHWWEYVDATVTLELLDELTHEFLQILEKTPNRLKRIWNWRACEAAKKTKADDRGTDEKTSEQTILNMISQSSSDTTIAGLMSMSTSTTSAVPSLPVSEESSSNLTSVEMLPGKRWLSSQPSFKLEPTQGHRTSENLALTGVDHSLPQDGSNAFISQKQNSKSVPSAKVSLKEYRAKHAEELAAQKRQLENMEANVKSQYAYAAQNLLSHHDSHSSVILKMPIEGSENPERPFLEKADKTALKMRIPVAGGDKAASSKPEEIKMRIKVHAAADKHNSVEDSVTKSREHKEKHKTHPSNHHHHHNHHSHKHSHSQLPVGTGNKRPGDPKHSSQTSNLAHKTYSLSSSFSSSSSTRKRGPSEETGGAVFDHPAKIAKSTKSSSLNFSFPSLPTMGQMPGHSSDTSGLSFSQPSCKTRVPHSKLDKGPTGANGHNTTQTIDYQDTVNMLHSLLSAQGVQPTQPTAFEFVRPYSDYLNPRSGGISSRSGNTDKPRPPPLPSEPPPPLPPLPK
CDK9/cyclin T1, sequence (P50750 whole entry): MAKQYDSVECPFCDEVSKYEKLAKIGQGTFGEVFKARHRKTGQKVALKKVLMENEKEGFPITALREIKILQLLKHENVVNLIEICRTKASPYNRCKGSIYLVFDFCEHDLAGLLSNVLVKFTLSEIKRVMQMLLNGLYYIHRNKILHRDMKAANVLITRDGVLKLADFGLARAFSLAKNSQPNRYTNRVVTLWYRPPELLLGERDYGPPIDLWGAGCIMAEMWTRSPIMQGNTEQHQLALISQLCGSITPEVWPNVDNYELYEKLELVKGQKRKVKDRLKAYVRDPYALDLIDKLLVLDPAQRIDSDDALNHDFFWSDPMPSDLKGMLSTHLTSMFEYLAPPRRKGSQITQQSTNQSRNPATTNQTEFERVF

[15] = Solubility of the compound in water; assay type: physicochemical
[16] = Cmax in BALB/c mouse plasma at 50 mg/kg, iv after 24 hrs by LC-MS analysis; assay type: ADME, organism-based; parameters: dose 50 mg/kg, route intravenous
[17] = AUC in BALB/c mouse plasma at 50 mg/kg, iv after 24 hrs by LC-MS analysis; assay type: ADME, organism-based; parameters: time < 24 hr, dose 50 mg/kg, route intravenous
[18] = Half life in BALB/c mouse plasma at 50 mg/kg, iv by LC-MS analysis; assay type: ADME, organism-based; parameters: dose 50 mg/kg, route intravenous
[19] = Volume of distribution in BALB/c mouse plasma at 50 mg/kg, iv after 24 hrs by LC-MS analysis; assay type: ADME, organism-based; parameters: dose 50 mg/kg, route intravenous
[20] = Clearance in BALB/c mouse plasma at 50 mg/kg, iv after 24 hrs by LC-MS analysis; assay type: ADME, organism-based; parameters: dose 50 mg/kg, route intravenous
[21] = system: Mus musculus; experiment: Ratio of Seliciclib clearance to compound clearance in BALB/c mouse plasma at 50 mg/kg, iv after 24 hrs by LC-MS analysis; assay type: ADME, organism-based; parameters: dose 50 mg/kg, route intravenous; settings: in vivo
[22] = Oral bioavailability in BALB/c mouse at 50 mg/kg by LC-MS analysis; assay type: ADME, organism-based; settings: in vivo
[23] = biological target: Mitogen-activated protein kinase 1 (Homo sapiens, UniProt P28482); experiment: Inhibition of ERK2
Mitogen-activated protein kinase 1, sequence (P28482 whole entry): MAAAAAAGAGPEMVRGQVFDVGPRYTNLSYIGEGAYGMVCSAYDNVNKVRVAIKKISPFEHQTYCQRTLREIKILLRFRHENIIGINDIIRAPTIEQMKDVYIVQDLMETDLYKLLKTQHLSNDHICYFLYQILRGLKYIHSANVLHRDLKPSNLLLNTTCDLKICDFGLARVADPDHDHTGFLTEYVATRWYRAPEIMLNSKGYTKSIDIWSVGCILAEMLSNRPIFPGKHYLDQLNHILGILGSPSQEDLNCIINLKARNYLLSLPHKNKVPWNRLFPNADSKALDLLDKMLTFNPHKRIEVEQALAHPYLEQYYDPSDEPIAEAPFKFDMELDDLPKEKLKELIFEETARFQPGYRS

[24] = system: HCT-116; experiment: Antitumor activity against human HCT116 cells xenografted in NCR athymic mouse assessed as reduction in tumor volume at 50 mg/kg, po twice daily at 12 to 14 hrs intervals measured after 12 days relative to vehicle treated control; assay type: functional; parameters: scale not given: the % may be the effect or the level left
[25] = system: HCT-116; experiment: Antitumor activity against human HCT116 cells xenografted in NCR athymic mouse assessed as growth delay at 50 mg/kg, po twice daily at 12 to 14 hrs intervals measured after 12 days relative to vehicle treated control; assay type: functional, organism-based; parameters: dose 50 mg/kg
[26] = system: HT-29; experiment: Inhibition of CDK-mediated RB phosphorylation at Ser-780 in human HT29 cells at 0.1 to 20 uM after 24 hrs by Western blotting relative to control; assay type: cell-based
[27] = system: HT-29; experiment: Reduction of RNA polymerase 2 expression in human HT-29 cells; assay type: functional, cell-based
[28] = system: HT-29; experiment: Cell cycle arrest in human HT-29 cells assessed as reduction at S phase at 3.3 uM up to 16 hrs measuring distribution of bromodeoxyuridine incorporation by flow cytometry; assay type: functional, cell-based
[29] = system: HT-29; experiment: Cell cycle arrest in human HT-29 cells assessed as accumulation at G2/M phase at 3.3 uM up to 16 hrs measuring distribution of bromodeoxyuridine incorporation by flow cytometry; assay type: functional, cell-based

Row | SMILES | IC50 [1] | IC50 [2] | IC50 [3] | IC50 [4] | IC50 [5] | GI50 [6] | GI50 [7] | GI50 [10] | GI50 [11] | metabolised at 0.5 h, 10 µM [13] | solubility ([15]; buffer) | Cmax [16] | AUC at 24 h [17] | half-life [18] | Vd [19] | clearance [20] | bioavailability [22] | GI50 [8] | GI50 [9] | GI50 [12] | other results
1 | CC[C@H](Nc1nc(NCc2cccnc2)c2ncn(C(C)C)c2n1)C(C)(C)O | 0.07 µM | 4.4 µM | 12 µM | 2.5 µM | > 200 µM | 4 µM | 5.8 µM | 4.1 µM | 5.4 µM | 22% | soluble | 215 µM | 109 µM·h | 0.4 h | 0.012 L | 0.4 mL/min | 15% | 5 µM | 6.8 µM | 5.4 µM | IC50 [14]: 0.16 µM; Ratio [21]: 2
2 | CC[C@H](Nc1nc(NCc2cccnc2)c2ncn(C(C)C)c2n1)[C@@H](C)O.O=C(O)C(F)(F)F |  |  |  |  |  |  |  |  |  |  |  |  |  |  |  |  |  |  |  |  | solubility ([15]; water, read-out: solubility): > 25 mg/mL
3 | CC[C@H](Nc1nc(NCc2ccccn2)c2ncn(C(C)C)c2n1)C(C)(C)O | 0.31 µM | 24 µM | 20 µM | 4.3 µM | > 200 µM | 19 µM | 44 µM | 32 µM | > 50 µM | 53% |  |  |  |  |  |  |  | 42 µM | 26 µM | 38 µM | IC50 [23]: > 200 µM
4 | CC[C@@H](Nc1nc(NCc2cccnc2)c2ncn(C(C)C)c2n1)[C@H](C)O |  |  |  |  |  |  |  |  |  |  | soluble | 377 µM | 158 µM·h | 1.7 h | 0.084 L | 0.283 mL/min | 15% |  |  |  | 
5 | CC[C@H](Nc1nc(NCc2cccnc2)c2ncn(C(C)C)c2n1)[C@@H](C)O [listing 2 of 2 here] |  |  |  |  |  |  |  |  |  |  |  |  |  |  |  |  |  |  |  |  | Activity [25]: Active; inhibition [26]: Active; Activity [27]: Active; Activity [28]: Active; Activity [29]: Active
6 | CC[C@H](Nc1nc(NCc2cccnc2)c2ncn(C(C)C)c2n1)C(O)C(C)C (mixture of isomers) | 1.1 µM | 22 µM | 31 µM | 3.5 µM | > 200 µM | 19 µM | 26.5 µM | 22 µM | 26 µM | 62% |  |  |  |  |  |  |  | 22 µM | 20.5 µM | 22 µM | 
7 | CC[C@H](CO)Nc1nc(NCc2ccccc2)c2ncn(C(C)C)c2n1 [SELICICLIB] |  |  |  |  | > 50 µM | 4.45 µM |  | 5.05 µM | 6.4 µM | 67% |  | 93.7 µM | 53.4 µM·h | 1.4 h | 0.073 L | 0.85 mL/min |  | 3.25 µM | 5.4 µM |  | 
8 | CCC(O)[C@@H](CC)Nc1nc(NCc2cccnc2)c2ncn(C(C)C)c2n1 (mixture of isomers) | 0.22 µM | 12 µM | 25 µM | 1.1 µM | > 200 µM | 6.2 µM | 19 µM | 10 µM | 20 µM | 30% |  |  |  |  |  |  |  | 18 µM | 14.5 µM | 13.5 µM | 

Further lines, with some results ahead:

Row | IC50 [1] | IC50 [2] | IC50 [3] | IC50 [4] | IC50 [5] | GI50 [6] | GI50 [7] | GI50 [10] | GI50 [11] | metabolised at 0.5 h, 10 µM [13] | solubility ([15]; buffer) | Cmax [16] | AUC at 24 h [17] | half-life [18] | Vd [19] | clearance [20] | bioavailability [22] | SMILES | GI50 [8] | GI50 [9] | GI50 [12] | other results
9 |  |  |  |  |  |  |  |  |  |  | soluble | 268 µM | 298 µM·h | 2.8 h | 0.013 L | 0.15 mL/min | 15% | CC[C@H](Nc1nc(NCc2cccnc2)c2ncn(C(C)C)c2n1)[C@@H](C)O [listing 1 of 2 here] |  |  |  | Activity [24]: 49%
10 | 0.05 µM | 8.9 µM | 18 µM | 2.6 µM | > 200 µM | 10 µM | 17 µM | 10 µM | 20 µM | 67% |  |  |  |  |  |  |  | CC[C@H](Nc1nc(NCc2ccccn2)c2ncn(C(C)C)c2n1)C(C)O (mixture of isomers) | 21 µM | 15.5 µM | 23 µM | IC50 [23]: 77 µM
11 | 0.2 µM | 6.2 µM | 7.5 µM | 3.1 µM | > 200 µM | 10 µM | 21 µM | 13 µM | 19 µM | 16% | soluble | 275 µM | 223 µM·h | 0.6 h | 0.01 L | 0.2 mL/min | 15% | CC[C@@H](Nc1nc(NCc2cccnc2)c2ncn(C(C)C)c2n1)C(C)(C)O | 20 µM | 21 µM | 13 µM | IC50 [14]: 0.21 µM; Ratio [21]: 2
12 | 0.52 µM | 39 µM | 48 µM | 0.55 µM | > 200 µM | 15 µM | 27 µM | 18 µM | 42 µM | 97% |  |  |  |  |  |  |  | CC[C@@H](Nc1nc(NCc2ccccn2)c2ncn(C(C)C)c2n1)C(C)O (mixture of isomers) | 20 µM | 20 µM | 37 µM | IC50 [23]: 73 µM
13 | 0.69 µM | 20 µM | 21 µM | 2.2 µM | > 200 µM | 23 µM | 37 µM | 25 µM | 32 µM | 36% |  |  |  |  |  |  |  | CC[C@@H](Nc1nc(NCc2cccnc2)c2ncn(C(C)C)c2n1)C(O)C(C)C (mixture of isomers) | 30 µM | 25 µM | 31 µM | 
